The nature of data set [1]: Aqueous solubility preliminary screen. The class given is physicochemical. The settings on record: pH 7.4 phosphate buffered saline with about 5% DMSO, aqueous with cosolvent or surfactant or cyclodextrin, free base, pH 7.4 PBS with about 5% DMSO, about room temperature. Here is the method: Aqueous solubility: A preliminary screen aims to estimate roughly the aqueous solubility of compounds by (as an approximate summary): (i) creating a ca. 10 mM solution of the compound in DMSO, (ii) diluting a portion of this DMSO solution by mixing about 19 parts by volume of pH 7.4 aqueous phosphate buffered saline (PBS) buffer with 1 part by volume of the ca. 10 mM DMSO solution, (iii) “filtering” the mixture with the aid of centrifugation, and then (iv) measuring the concentration of the dissolved compound in the “filtrate”.

Data set [2] has as its system Dinitrofluorobenzene (DNFB)-induced delayed type hypersensitivity (DTH) response in pigs. Kind of data set: Pig model of atopic dermatitis: DNFB-induced DTH response, skin topical administration. It counts as in vivo. The source says:
The pig DTH (delayed type hypersensitivity) model of contact hypersensitivity utilizes the Th2-mediated inflammatory response in pig skin to mimic the pathology of atopic dermatitis in humans. The model measures the potential anti-inflammatory effect of compounds, topically-applied to the skin, on the acute DTH (delayed type hypersensitivity) response in castrated male Yorkshire pigs.
In general in the assay, pigs (domestic Yorkshire pigs, 15-18 kg at time of sensitization, castrated males) are first sensitized by topical application of ca. 10% (w/v) dinitrofluorobenzene (DNFB) dissolved in DMSO:acetone:olive oil (ca. 1:5:3) (ca. 40 mg DNFB, 400 microlitre solution total) to the ears (outer) and groin (inner). The pigs are then challenged 12 days later with ca. 0.6% (w/v) DNFB applied to randomized sites on the shaved back of the pigs (ca. 90 micrograms/site; sites are identified and numbered by grid made with marking pen).
On the day of challenge, the treatments are performed at about 2 hours prior to and about 6 hours after challenge (for DMSO/acetone solutions/suspensions, to maximize exposure to drug), or at about 30 minutes after and about 6 hours after challenge (for topical ointments or creams, representing a more clinically relevant treatment protocol).
One day (about 24 hrs) after challenge, and optionally again at ca. 48 hrs post challenge, test sites are visually evaluated for intensity and extent of erythema by measuring the diameter of the reaction at its widest point and assigning scores of 0 to 4 for each of erythema intensity and erythema extent. Induration (a measure of swelling) is also scored 0 to 4. Scores for erythema intensity, erythema extent and induration are assigned according to the following criteria: Intensity of Erythema: 0=normal, 1=minimal, barely visible, 2=mild, 3=moderate, 4=severe. Extent of Erythema (not raised): 0=no edema, 1=macules of pin head size, 2=lentil sized macules, 3=confluent macules, 4=diffuse over entire site. Induration (palpable): 0=normal, 1=nodules of pin head size, 2=doughy lentil sized nodules, 3=confluent firm nodules, 4=diffuse hard lesion. The summed visual score at ca. 24 hours includes the individual scores for erythema intensity, erythema extent, and induration; so the maximal summed score for each site would be 12. High summed scores can generally indicate a high inflammatory response. Visual scores are subject to some inaccuracy/error.
Differences in the summed score between adjacent control (placebo) and treatment sites on the grids are calculated. This difference value is then used to determine the percent inhibition compared to the summed score for the control (placebo) sites. The more negative the difference value, the greater the calculated inhibition. Percent inhibition of (percent inhibition compared to) the mean summed score can be calculated.
About 24 hours after challenge, treatment sites can optionally also be visually evaluated for lesion area.
The anti-inflammatory effect of the compound of formula (I) (“free base” form), applied topically to the skin, on the acute DTH response in castrated male Yorkshire pigs is compared to that of another PDE4 inhibitor cipamfylline (BRL-61063) and the topical immunomodulator pimecrolimus.
In the above assay, the compound of formula (I) is topically administered: either (A) at ca. 2.5% (w/v) concentration in a solution of ca. 10% DMSO/90% acetone (ca. 50 microliters or ca. 1.5 mg/site) at about 2 hours prior to and about 6 hours after the DNFB challenge; or (B) at ca. 0.5% (w/w) concentration in an ointment containing propylene glycol (PG)*(ca. 25 mg of formulation/site) at about 30 minutes after and about 6 hours after the DNFB challenge. […]

The test system of data set [3] is TNF-α (TNF-alpha) production in Human PBMC (Peripheral Blood Mononuclear Cell). The data set is described as follows: Inhibition of TNF-α production in Human PBMC assay. The class given is cell-based. The conditions noted are these: LPS-stimulated, n=9, read-out: Inhibition of TNF-α production in PBMCs pIC50 (converted). The method, then: Test compounds are prepared as a ca. 10 mM stock solution in DMSO and a dilution series prepared in DMSO with 8 successive 3-fold dilutions, either directly from the 10 mM stock solution or from a more dilute solution in DMSO. The compound is added to assay plates using a Biomek Fx liquid handling robot.
PBMC cells (peripheral blood mononuclear cells) are prepared from heparinised human blood from normal volunteers by centrifugation on histopaque at ca. 1000 g for ca. 30 minutes. The cells are collected from the interface, washed by centrifugation (ca. 1300 g, ca. 10 minutes) and resuspended in assay buffer (RPMI 1640 containing 10% foetal calf serum, 1% L-glutamine and 1% penicillin/streptomycin) at 1×10^6 cells/ml. Ca. 50 μl (ca. 50 ul) cells are added to microtitre wells containing ca. 0.5 or ca/1.0 μl (ul) of an appropriately diluted compound solution. Ca. […] The supernatant is removed and the concentrations of TNF are determined by electrochemiluminescence assay using the IGEN technology or by ELISA (see below).
Ca. […] 50 μl (ul) of streptavidin/biotinylated anti-TNF-α antibody mix, ca. 25 μl ruthenium tagged anti-TNF-α monoclonal and ca. 100 μl PBS containing 0.1% bovine serum albumin are added to each well and the plates are sealed and shaken for ca. 2 hours before being read on an IGEN instrument. […]

In the case of `CCn1ncc2c(NC3CCN(C(N)=O)CC3)c(C(=O)NCc3ccc(C)c(C)c3)cnc21` [compound of formula (I), 4-{[1-(aminocarbonyl)-4-piperidinyl]amino}-N-[(3,4-dimethylphenyl)methyl]-1-ethyl-1H-pyrazolo[3,4-b]pyridine-5-carboxamide], the solubility (kinetic) in data set [1] was roughly 60 µg/mL. Moreover, the “inhibition of mean summed score (erythema intensity, erythema extent, induration)” value in data set [2] (ca. 0.5% (w/w) in PG ointment, vs placebo PG ointment, ca. 24 h after challenge, p<0.05 by ANOVA) is on record as 13-14%. In addition, in data set [2] (ca. 2.5% (w/v) in DMSO/acetone solution, vs vehicle alone, ca. 24 h after challenge), the “reduction in mean summed score” value is “about 21%”. Besides, the lesion area entry in data set [2] (skin administration in DMSO/acetone or PG ointment, subject to some inaccuracy/error) is on record as “decrease the lesion area”. In addition, the IC50 in data set [3] was 1.82 nM.

The term kinetic solubility denotes solubility judged after dilution from a stock solution rather than from solid.

The values above are taken from US7709497B2, “Pyrazolo[3,4-b]pyridine compound, and its use as a PDE4 inhibitor” (Glaxo Group Limited, priority 2004, dated 2010).
